Values of other authors in patent US20230293541A1, “METHODS OF TREATING OPHTHALMIC CONDITIONS WITH ENHANCED PENETRATION COMPOSITIONS OF BIMATOPROST AND TIMOLOL” (Somerset Therapeutics, LLC, priority 2022, published 2023).

Legend:
[1] = patients starting on prostaglandin monotherapy
[2] = under certain conditions
[3] = in comparison to latanoprost and travoprost
[4] = three-month comparison, glaucoma and ocular hypertension

| API stability [2] | corneal penetration [3] | Compound | rate of adjunctive medication use [1] [%] | mean pressures (IOP) versus latanoprost [4] |
| --- | --- | --- | --- | --- |
| experiencing degradation |  | CC(C)OC(=O)CCC/C=C\C[C@@H]1[C@@H](/C=C/[C@@H](O)COc2cccc(C(F)(F)F)c2)[C@H](O)C[C@@H]1O [travoprost] | 22.5 |  |
| experiencing degradation |  | CC(C)OC(=O)CCC/C=C\C[C@@H]1[C@@H](CC[C@@H](O)CCc2ccccc2)[C@H](O)C[C@@H]1O [latanoprost] | 30.2 |  |
| remain stable | poor corneal penetration | CCNC(=O)CCC/C=C\C[C@@H]1[C@@H](/C=C/[C@@H](O)CCc2ccccc2)[C@H](O)C[C@@H]1O [bimatoprost, (Z)-7-[(1R, 2R, 3R, 5S)-3,5-Dihydroxy-2-[(1E, 3S)˜3-hydroxy-5-phenyl˜1-pentenyl]cyclopentyl]˜5-N-ethylheptenamid] | 23.2 | lower mean pressures than latanoprost at every time point studied |
